Reference: PubChem BioAssay (NCI)
Where “and” joins values, the source holds several entries; their conditions need not be identical. Equal values may be shown once.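 Dose response: 5 concentrations. Exposure: 48 h. Format: 96-well plates. Endpoint: linear interpolation; highest concentration if not reached. GI50: concentration for 50% inhibition of growth. TGI: total growth inhibition.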

Key:
Experiment in all cases: NCI-60 cell line screen, 48 h
A498 renal = system: A498 renal
COLO 205 colon = system: COLO 205 colon
HCT-15 colon = system: HCT-15 colon
HOP-62 NSCLC = system: HOP-62 NSCLC
HT29 colon = system: HT29 colon
LOX IMVI melanoma = system: LOX IMVI melanoma
M14 melanoma = system: M14 melanoma
NCI-H460 lung = system: NCI-H460 lung

| Structure (SMILES) | GI50 (A498 renal) | TGI (A498 renal) | GI50 (COLO 205 colon) | TGI (COLO 205 colon) | GI50 (HCT-15 colon) | TGI (HCT-15 colon) | GI50 (HOP-62 NSCLC) | TGI (HOP-62 NSCLC) | GI50 (HT29 colon) | TGI (HT29 colon) | GI50 (LOX IMVI melanoma) | TGI (LOX IMVI melanoma) | GI50 (M14 melanoma) | TGI (M14 melanoma) | GI50 (NCI-H460 lung) | TGI (NCI-H460 lung) |
| --- | --- | --- | --- | --- | --- | --- | --- | --- | --- | --- | --- | --- | --- | --- | --- | --- |
| CCN1Cc2c(ccc(F)c2C#N)O[C@@H](C)CNC(=O)c2c(N)nn3ccc1nc23 | 0.712 µM | 3.9 µM | 0.815 µM | 3.74 µM | 2.46 µM | 14.9 µM | 2.76 µM | 20.1 µM | 0.98 µM | 46.7 µM | 1.13 µM | 6.9 µM | 0.678 µM | 11.1 µM | 2.42 µM | 28.9 µM |
| COC(=O)C1CCCN1C(=O)[C@@H]1CCCN1C(=O)[C@H](Cc1c[nH]c2ccccc12)NC(=S)Nc1cc(C(F)(F)F)cc(C(F)(F)F)c1 (some centres undefined) | 2.15 µM | 6.65 µM | 1.72 µM | 3.21 µM | 3.41 µM | 12.8 µM | 2.17 µM | 6.5 µM | 1.89 µM | 3.44 µM | 1.91 µM | 4.28 µM | 2.19 µM | 5.23 µM | 1.94 µM | 3.79 µM |
| COc1cc2c(cc1OCCCCCOc1ccc(-n3c(C)nc4ccccc4c3=O)cc1)N=C[C@@H]1CCCN1C2=O | 0.214 µM | 0.543 µM | 0.165 µM | 0.37 µM | 1.13 µM | 3.9 µM | 0.23 µM | 0.524 µM | 0.317 µM | > 100 µM | 0.176 µM | 0.447 µM | 0.18 µM | 0.375 µM | 0.248 µM | 0.691 µM |
| O=C(O)C1C(C(=O)O)C23CC2(C(=O)O)C2(C(=O)O)CCC3=C3CCCC312 (centres undefined) |  | 62.6 µM |  | 16.8 µM |  | > 100 µM |  | 22.4 µM |  | 44.8 µM |  | 28.1 µM |  | > 100 µM |  | 20 µM |
| CC1(O)CC(c2nc(-c3ccc4ccc(-c5ccccc5)nc4c3)c3c(N)nccn23)C1 (centres undefined) | 3.32 µM and 4.55 µM | 12.8 µM and > 10 µM | 0.346 µM and 0.0989 µM | 14.2 µM and 4.07 µM | 4.52 µM and 3.68 µM | > 79.6 µM | 5.75 µM and 7.35 µM | 50.6 µM and > 10 µM | 0.105 µM and 0.0588 µM | 21.5 µM and > 10 µM | 7.41 µM and 6.46 µM | 45.4 µM and > 10 µM | 11.5 µM and > 10 µM | 31.1 µM and > 10 µM | 2.7 µM and 1.5 µM | 24.8 µM and > 10 µM |
| COc1ccc(NC(=O)COCCOCCNC[C@@H]2C(=O)O[C@H]3[C@H]2CC/C(COC(=O)OC/C2=C/CC[C@@]4(C)O[C@H]4[C@H]4OC(=O)[C@@H](CN(C)C)[C@@H]4CC2)=C\CC[C@@]2(C)O[C@@H]32)c(O)c1C(N)=O | 16.6 µM | > 50 µM | 1.06 µM | 2.52 µM | 1.44 µM | 6.14 µM | 39.9 µM | > 50 µM | 1.71 µM | 5.77 µM | 5.31 µM | 11.4 µM | 7.22 µM | 15.5 µM | 16.5 µM | > 50 µM |
| O=C1C=CC[C@H](/C=C/c2ccccc2)O1 | 1.45 µM | 6.91 µM | 2.03 µM | 20.2 µM | 3.14 µM | 22.2 µM | 7.44 µM | > 61.6 µM | 1.88 µM | 23.9 µM | 1.7 µM | 7.93 µM | 5.85 µM | 23.3 µM | 1.53 µM | 14.3 µM |
